Measured values published in patent US6649636B1, “Heteroaryl phenyl pyrazole compounds as anti-inflammatory/analgesic agents” (Pfizer Inc., priority 1999, dated 2003).

| Structure (SMILES) | melting point [°C] |
| --- | --- |
| CS(=O)(=O)c1ccc(-n2nc(C(F)(F)F)cc2-c2ccc(-c3ccco3)cc2)cn1 [Example 1, 5-[4-(2-Furyl)phenyl]-1-[2-(methylsulfonylpyridin)-5-yl]-3-trifluoromethyl-1H-pyrazole] | 106 to 109 |
| Cc1cc(-c2cc(C(F)(F)F)nn2-c2ccc(S(C)(=O)=O)cn2)ccc1-c1cscn1 [Example 2] | 179 to 182 |
| CS(=O)(=O)c1ccc(-n2nc(C(F)(F)F)c(F)c2-c2ccc(-c3cscn3)cc2)cn1 [Example 7] | 170.5 to 171 |
| Cc1cc(-c2cc(C(F)(F)F)nn2-c2ccc(S(C)(=O)=O)cn2)ccc1-c1cocn1 [Example 9] | 154 to 155 |
| Cc1cc(-c2c(C#N)cnn2-c2ccc(S(C)(=O)=O)cn2)ccc1-c1cscn1 [Example 11] | 223 to 224 |
| CCc1c(C(F)(F)F)nn(-c2ccc(S(C)(=O)=O)cn2)c1-c1ccc(-c2cscn2)c(C)c1 [Example 13] | 163 to 164 |
| Cc1cc(-c2cc(C(F)(F)F)nn2-c2ccc(S(C)(=O)=O)cn2)ccc1-c1ccco1 [Example 15] | 160 to 161.1 |
| Cc1cc(-c2cc(C(F)(F)F)nn2-c2ccc(S(C)(=O)=O)cn2)ccc1-c1ccsc1 [Example 16] | 165 to 166 |
| CS(=O)(=O)c1ccc(-n2nc(C(F)(F)F)cc2-c2ccc(-c3cscn3)c(Cl)c2)nc1 [Example 19] | 175.6 |
| CS(=O)(=O)c1ccc(-n2nc(C(F)(F)F)cc2-c2ccc(-c3cscn3)cc2F)nc1 [Example 21] | 194.3 |
| CS(=O)(=O)c1ccc(-n2nc(C(F)(F)F)cc2-c2ccc(-c3cscn3)c(F)c2)nc1 [Example 24] | 187.5 |
| Cc1cc(-c2cc(C(F)F)nn2-c2ccc(S(C)(=O)=O)cn2)ccc1-c1cscn1 [Example 27] | 156.9 |
| Cc1cc(-c2cc(C(F)(F)F)nn2-c2ccc(S(C)(=O)=O)cn2)ccc1-c1cnn[nH]1 [Example 30] | 189 |
| CS(=O)(=O)c1ccc(-n2nc(C(F)(F)F)cc2-c2ccc(-c3ccc(Cl)s3)cc2)cn1 [Example 34] | 155 to 156 |
| Cc1ccc(-c2ccc(-c3cc(C(F)(F)F)nn3-c3ccc(S(C)(=O)=O)nc3)cc2)s1 [Example 35] | 123 to 124 |
| CS(=O)(=O)c1ccc(-n2nc(C(F)(F)F)cc2-c2ccc(-c3ccco3)cc2)nn1 [Example 36] | 209 to 212 |
| CS(=O)(=O)c1cnc(-n2nc(C(F)(F)F)cc2-c2ccc(-c3ccco3)cc2)s1 [Example 37] | 188 to 190 |

Next, values leading:

| melting point [°C] | Structure (SMILES) |
| --- | --- |
| 120.8 | Cc1cc(-c2cc(C(F)(F)C(F)(F)F)nn2-c2ccc(S(C)(=O)=O)nc2)ccc1-c1cscn1 [Example 4] |
| 81 to 83 | Cc1cc(-c2c(Cl)c(C(F)(F)F)nn2-c2ccc(S(C)(=O)=O)nc2)ccc1-c1cscn1 [Example 5] |
| 214 to 215 | Cc1cc(-c2cc(C(F)(F)F)nn2-c2ccc(S(C)(=O)=O)cn2)c(C)cc1-c1cscn1 [Example 10] |
| 144 to 145 | COC(=O)c1cc(-c2ccc(-c3cscn3)c(C)c2)n(-c2ccc(S(C)(=O)=O)cn2)n1 [Example 12] |
| 95 to 100 | CS(=O)(=O)c1ccc(-n2nc(C(F)(F)F)cc2-c2ccc(-c3cscn3)c(Cl)c2)cn1 [Example 17] |
| 210 to 211 | CS(=O)(=O)c1ccc(-n2nc(C(F)(F)F)cc2-c2ccc(-c3cscn3)cc2)nc1 [Example 18] |
| 170 to 175 | COc1cc(-c2cc(C(F)(F)F)nn2-c2ccc(S(C)(=O)=O)cn2)ccc1-c1cscn1 [Example 20] |
| 166.1 | CS(=O)(=O)c1ccc(-n2nc(C(F)(F)F)cc2-c2ccc(-c3cscn3)cc2Cl)nc1 [Example 22] |
| 165.8 | CCc1cc(-c2cc(C(F)(F)F)nn2-c2ccc(S(C)(=O)=O)cn2)ccc1-c1cscn1 [Example 23] |
| 158.9 | Cc1cc(-c2cc(C(F)(F)F)nn2-c2ccc(S(C)(=O)=O)c(F)n2)ccc1-c1cscn1 [Example 25] |
| 174.5 to 176 | Cc1cc(-c2cc(C(F)(F)F)nn2-c2ccc(S(C)(=O)=O)cn2)ccc1-c1ncco1 [Example 28] |
| 241 to 242 | Cc1cc(-c2cc(C(F)(F)F)nn2-c2ccc(S(C)(=O)=O)cn2)ccc1-c1nn[nH]n1 [Example 29] |
| 176.9 | Cc1nc(-c2ccc(-c3cc(C(F)(F)F)nn3-c3ccc(S(C)(=O)=O)nc3)cc2)cs1 [Example 32] |
